How the values were obtained:
Blood stability, mouse = type: in vitro ADME; settings: plasma, n=3
Experimental: (§1) Plasma from mice, rats, rabbits, and humans was obtained from blood after centrifugation at 3000 r/min for 10 min. Simulated gastric fluid (SGF, pH = 1, containing pepsin) and simulated intestinal fluid (SIF, pH = 6.8, containing trypsin) were configured previously in the experiments. SD rats and mice were collected, and after removing the mucus layer from the small intestine and colon, 20 times the volume of liquid bacterial culture medium was added. An intestinal microbiota suspension was obtained after anaerobic cultivation on a shaking table at 37 °C for 12 h. In the aforementioned systems, E3 was added at a final concentration of 1 μmol/L at 37 °C for different incubation times (0, 10, 20, 30, 60, 120, and 240 min). In liver metabolic stability assays, E3 was incubated with liver microsomes or liver homogenate from mice or rats for 60 min at 37 °C. The stop solution, 5 ng/mL tolbutamide (internal standard, IS) in acetonitrile, was added to stop the metabolic process. Post-centrifugation (18,000× g, 10 min, 4 °C), supernatants were subjected to liquid chromatography–tandem mass spectrometry (LC–MS/MS). Analyte-to-IS peak area ratios quantified residual percentages via Equation (2):Remaining% = (E3peak area/ISpeak area at different time)/(E3peak area/ISpeak area at 0 min) × 100%.(2)

[1] = Stability in simulated gastric fluid (SGF) and simulated intestinal fluid (SIF); type: in vitro ADME; settings: 1 μmol/L; 37 °C; after 4 h
Experimental: as §1

rat UT-B = molecular target: T1, rat UT-B (Rattus norvegicus, UniProt P97689); assay: Transwell assay of UT-B inhibition in UT-B-MDCK cells; type: cell-based; settings: read-out: IC50 against UT-B-mediated urea permeability
T1 construct: expressed in transfected cells
T1 sequence (P97689 1-384): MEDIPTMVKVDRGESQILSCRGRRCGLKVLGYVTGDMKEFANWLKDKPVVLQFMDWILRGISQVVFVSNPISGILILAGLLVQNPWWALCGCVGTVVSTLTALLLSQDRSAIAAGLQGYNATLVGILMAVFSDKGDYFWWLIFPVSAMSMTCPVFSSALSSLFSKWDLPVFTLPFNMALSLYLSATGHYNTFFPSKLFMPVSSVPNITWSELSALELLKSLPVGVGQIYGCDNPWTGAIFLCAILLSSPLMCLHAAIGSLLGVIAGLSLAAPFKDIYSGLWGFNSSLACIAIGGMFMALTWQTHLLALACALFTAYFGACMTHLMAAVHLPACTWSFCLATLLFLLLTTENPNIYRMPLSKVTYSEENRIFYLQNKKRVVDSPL
Experimental: (§2) MDCK cells stably expressing rat UT-A1 or UT-B were cultured in DMEM supplemented with 10% FBS, and the mRNA levels of UT-A1 and UT-B were measured in our previous research. Urea flux was assessed according to previously established methods. MDCK cells (2 × 10^5 cells/cm^2) were grown on 12 mm collagen-coated Costar Transwell inserts (0.4 μm pore size, Corning) for 4 d at 37 °C in the presence of 5% CO2. Once the cells on the apical side formed a tight monolayer (transepithelial resistance 1 kΩ/cm^2), PBS (pH = 7.4, containing 10 μmol/L forskolin) with E3 or DMSO was added to the top (0.25 mL) and bottom (1 mL) compartments, and the cultures were incubated in the absence of urea for 30 min at 37 °C. As UT-B is located in the plasma membrane while UT-A1 resides in the cytoplasm, forskolin was used to stimulate the translocation of UT-A1 from the cytoplasm to the membrane for urea transport. Subsequently, the solution in the bottom compartment was replaced with PBS (pH 7.4, containing 10 μmol/L forskolin and E3 or DMSO) supplemented with 15 mmol/L urea. Apical fluid samples (5 μL) were collected at 0, 1, 3, 5, 10, 15, 20, 30, 40, 50, and 60 min. The samples were subjected to an assay for urea (Urea Colorimetric Assay Kit (Diacetyl Oxime Method), Elabscience, Wuhan, China) according to the kit procedure. Then, the inhibition rate was calculated as described previously.

[2] = Liver microsome metabolic stability, mouse; type: in vitro ADME; settings: 60 min incubation, 37 °C
Experimental: as §1

rat UT-A1 = molecular target: T2, rat UT-A1 (Rattus norvegicus, UniProt Q62668); assay: Transwell assay of UT-A1 inhibition in UT-A1-MDCK cells; type: cell-based; settings: read-out: IC50 against UT-A1-mediated urea permeability
T2 construct: expressed in transfected cells
T2 sequence (Q62668 1-929): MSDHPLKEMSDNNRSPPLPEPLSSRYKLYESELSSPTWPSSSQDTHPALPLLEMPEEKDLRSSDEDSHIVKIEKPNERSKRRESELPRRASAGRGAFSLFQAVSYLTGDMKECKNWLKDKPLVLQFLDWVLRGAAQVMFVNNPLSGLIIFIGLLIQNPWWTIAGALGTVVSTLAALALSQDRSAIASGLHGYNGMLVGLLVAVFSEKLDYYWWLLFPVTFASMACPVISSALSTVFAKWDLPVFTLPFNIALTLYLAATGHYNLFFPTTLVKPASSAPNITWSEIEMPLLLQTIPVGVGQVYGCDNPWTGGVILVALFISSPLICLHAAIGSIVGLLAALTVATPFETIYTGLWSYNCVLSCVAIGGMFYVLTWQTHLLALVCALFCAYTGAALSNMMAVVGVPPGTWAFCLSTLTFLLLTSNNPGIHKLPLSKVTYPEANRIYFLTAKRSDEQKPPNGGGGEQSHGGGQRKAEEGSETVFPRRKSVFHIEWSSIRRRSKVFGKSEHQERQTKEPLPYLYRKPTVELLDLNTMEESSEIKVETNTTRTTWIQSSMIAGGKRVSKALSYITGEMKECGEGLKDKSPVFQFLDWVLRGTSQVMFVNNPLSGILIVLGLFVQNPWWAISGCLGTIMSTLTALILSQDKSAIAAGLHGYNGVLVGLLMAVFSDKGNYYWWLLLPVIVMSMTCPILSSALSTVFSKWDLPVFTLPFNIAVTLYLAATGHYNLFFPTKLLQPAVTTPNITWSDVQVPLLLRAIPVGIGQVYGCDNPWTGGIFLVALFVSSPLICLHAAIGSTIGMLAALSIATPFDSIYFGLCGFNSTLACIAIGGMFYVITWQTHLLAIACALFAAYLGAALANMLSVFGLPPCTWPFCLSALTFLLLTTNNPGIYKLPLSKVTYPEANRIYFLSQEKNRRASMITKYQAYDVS
Experimental: as §2

## CC(=O)c1ccc(C(=O)Nc2cccc(NS(=O)(=O)c3ccccc3)c2)o1 [Compound E3, 5-acetyl-N-(3-(phenylsulfonamido)phenyl)furan-2-carboxamide]
Blood stability, mouse
  remaining at 1 μmol/L: 45.3%
[1]
  E3 remaining in SGF (pH 1.0) and SIF (pH 6.8): More than 90%
Rat UT-B
  IC50: 58 nM
[2]
  remaining amount, mouse liver microsomes: 36.8%
Rat UT-A1
  IC50: 18 nM
